Measured values taken from publication PMC5031577, “Preclinical evaluation of [^68Ga]NOTA-pentixafor for PET imaging of CXCR4 expression in vivo — a comparison to [^68Ga]pentixafor” (EJNMMI Research, 2016).
Read-outs that look alike come from different tables or passages of the source. Square brackets hold non-standard residues; d marks the D form. Side chains are listed from the residue outwards. Peptide text beside a SMILES is read from it. * marks the point of attachment. DOTA = O=C(O)CN1CCN(CC(=O)O)CCN(CC(=O)*)CCN(CC(=O)O)CC1; NOTA = O=C(O)CN1CCN(CC(=O)O)CCN(CC(=O)*)CC1; 2Nal = N[C@@H](Cc1ccc2ccccc2c1)C(=O)O; dNMeOrn = CN[C@H](CCCN)C(=O)O; 4Amb = NCc1ccc(C(=O)O)cc1

Key:
[1] = Metabolite analysis of mouse plasma after i.v. injection; assay type: in vivo; conditions: CB17 SCID mouse, 50 MBq i.v., plasma at 60 min p.i., RP-HPLC with γ-counter
Protocol: All animal studies were conducted in accordance with the German Animal Welfare Act (Deutsches Tierschutzgesetz, approval No. 55.2-1-54-2532-71-13). For metabolite analysis, 50 MBq of [^68Ga]NOTA-pentixafor in a total volume of 200 μL of PBS was injected into the tail vein of a CB17 SCID mouse; the animal was sacrificed at 1 h p.i. and blood was collected. After sample preparation, as described in [24], the plasma samples were analyzed by reversed phase (RP)-HPLC and eluate fractions were analyzed using a γ-counter.

[2] = Determination of tracer lipophilicity (logP); assay type: physicochemical; conditions: determined as published (method ref 22)
Protocol: General procedures and syntheses of the peptides are described in a recently reported protocol. Determination of tracer lipophilicity and serum stability as well as in vitro studies were performed as recently published. ^68Ga-labeling of peptides was performed as described using a fully automated system (Scintomics GmbH); briefly, the ^68Ge/^68Ga generator eluate fractions (1.25 mL) were reacted with 5 nmol of peptide. The mixture was buffered with 0.6 mL HEPES (pH = 7.4) to a final pH of 3–4 and heated to 95 °C for 5 min. After purification via one Sep-Pak C8 light cartridge, the ethanolic product fraction was diluted with PBS and used as such for the experiments.

[3] = Biodistribution in Daudi lymphoma xenograft bearing SCID mice; assay type: in vivo, mouse; conditions: female, CB-17 SCID, mouse, iv, total radioactivity, mean ± SD
Protocol: (§1) For PET (n = 3) and biodistribution studies (n = 5), an average of 15.2 MBq [^68Ga]NOTA-pentixafor (100 μL in PBS, 145 pmol, 171 ng) with a specific activity (AS) of 104 GBq/μmol was injected intravenously into the tail vein of isofluorane anesthesized female Daudi lymphoma-bearing SCID mice. […] After static PET imaging for 15 min (Inveon Siemens μPET scanner), the mice were sacrificed (90 min p.i.), and tissues and organs of interest were dissected, weighed, and counted for radioactivity in a γ-counter. The percentage of injected dose per gram of tissue (% ID/g) was calculated; data are shown as mean ± SD.

[4] = system: Daudi xenograft bearing CB-17 SCID mice; experiment: as above; assay type: in vivo, mouse; conditions: tracer only, i.v., 1.5 h p.i., mean ± SD
Protocol: as §1

[5] = set-up: method as in PMID 22045709; conditions: at 30 min p.i.; cited from earlier work
CXCR4 = conditions: Jurkat T cells, [^125I]FC131 radioligand; natGa-complexed peptides and metal-free precursors; determined previously; cited from earlier work
Text: Table 1 Comparison of the lipophilicity and the in vitro CXCR4 targeting characteristics of [^68Ga]NOTA-pentixafor and [^68Ga]pentixafor | column: IC50 (nM)

[6] = adrenals, 15.2 MBq, tracer only, i.v., 1.5 h p.i., read-out: Adrenals uptake
[7] = heart, 15.2 MBq, tracer only, i.v., 1.5 h p.i., read-out: Heart uptake
[8] = intestine, 15.2 MBq, tracer only, i.v., 1.5 h p.i., read-out: Intestine uptake
[9] = kidney, 15.2 MBq, tracer only, i.v., 1.5 h p.i., read-out: Kidney uptake
[10] = liver, 15.2 MBq, tracer only, i.v., 1.5 h p.i., read-out: Liver uptake
[11] = lung, 15.2 MBq, tracer only, i.v., 1.5 h p.i., read-out: Lung uptake
[12] = muscle, 15.2 MBq, tracer only, i.v., 1.5 h p.i., read-out: Muscle uptake
[13] = pancreas, 15.2 MBq, tracer only, i.v., 1.5 h p.i., read-out: Pancreas uptake
[14] = spleen, 15.2 MBq, tracer only, i.v., 1.5 h p.i., read-out: Spleen uptake
[15] = stomach, 15.2 MBq, tracer only, i.v., 1.5 h p.i., read-out: Stomach uptake

logP [2] | tissue uptake at 1.5 h [3, 6] | tissue uptake at 1.5 h [3, 7] | tissue uptake at 1.5 h [3, 8] | tissue uptake at 1.5 h [3, 9] | tissue uptake at 1.5 h [3, 10] | tissue uptake at 1.5 h [3, 11] | tissue uptake at 1.5 h [3, 12] | tissue uptake at 1.5 h [3, 13] | tissue uptake at 1.5 h [3, 14] | tissue uptake at 1.5 h [3, 15] | Compound | further results
−2.36 | 0.52 ± 0.3 %ID/g | 0.34 ± 0.19 %ID/g | 1.89 ± 0.83 %ID/g | 2.71 ± 1.06 %ID/g | 2.3 ± 0.88 %ID/g | 0.73 ± 0.25 %ID/g | 0.13 ± 0.1 %ID/g | 0.12 ± 0.05 %ID/g | 0.44 ± 0.22 %ID/g | 0.45 ± 0.21 %ID/g | CN1C(=O)[C@@H](Cc2ccc(O)cc2)NC(=O)CNC(=O)[C@H](Cc2ccc3ccccc3c2)NC(=O)[C@H](CCCNC(=N)N)NC(=O)[C@H]1CCCNC(=O)c1ccc(CNC(=O)CN2CCN(CC(=O)O)CCN(CC(=O)O)CC2)cc1 [[^68Ga]NOTA-pentixafor, metal not drawn] (cyclo([2Nal]G[dY][dNMeOrn]([4Amb-NOTA])R)) | radiometabolites in mouse plasma (metabolic stability) [1]: complete absence of radiometabolites; tissue uptake at 1.5 h ([3]; adrenals, co-injection of 50 μg AMD3100, n = 3, 1.5 h p.i., read-out: Adrenals uptake): 0.48 ± 0.15 %ID/g; tissue uptake at 1.5 h ([3]; blood, 15.2 MBq, tracer only, i.v., 1.5 h p.i., read-out: Blood uptake): 0.65 ± 0.41 %ID/g; tissue uptake at 1.5 h ([3]; blood, co-injection of 50 μg AMD3100, n = 3, 1.5 h p.i., read-out: Blood uptake): 0.62 ± 0.26 %ID/g; tissue uptake at 1.5 h ([3]; bone, 15.2 MBq, tracer only, i.v., 1.5 h p.i., read-out: Bone uptake): 0.25 ± 0.18 %ID/g; tissue uptake at 1.5 h ([3]; bone, co-injection of 50 μg AMD3100, n = 3, 1.5 h p.i., read-out: Bone uptake): 0.16 ± 0.07 %ID/g; tissue uptake at 1.5 h ([3]; gallbladder, 15.2 MBq, tracer only, i.v., 1.5 h p.i., read-out: Gallbladder uptake): 3.61 ± 3 %ID/g; tissue uptake at 1.5 h ([3]; gallbladder, co-injection of 50 μg AMD3100, n = 3, 1.5 h p.i., read-out: Gallbladder uptake): 5.14 ± 2.24 %ID/g; tissue uptake at 1.5 h ([3]; heart, co-injection of 50 μg AMD3100, n = 3, 1.5 h p.i., read-out: Heart uptake): 0.36 ± 0.14 %ID/g; tissue uptake at 1.5 h ([3]; intestine, co-injection of 50 μg AMD3100, n = 3, 1.5 h p.i., read-out: Intestine uptake): 3.97 ± 0.92 %ID/g; tissue uptake at 1.5 h ([3]; kidney, co-injection of 50 μg AMD3100, n = 3, 1.5 h p.i., read-out: Kidney uptake): 3.56 ± 1.03 %ID/g; tissue uptake at 1.5 h ([3]; liver, co-injection of 50 μg AMD3100, n = 3, 1.5 h p.i., read-out: Liver uptake): 2.02 ± 0.76 %ID/g; tissue uptake at 1.5 h ([3]; lung, co-injection of 50 μg AMD3100, n = 3, 1.5 h p.i., read-out: Lung uptake): 0.95 ± 0.38 %ID/g; tissue uptake at 1.5 h ([3]; muscle, co-injection of 50 μg AMD3100, n = 3, 1.5 h p.i., read-out: Muscle uptake): 0.13 ± 0.05 %ID/g; tissue uptake at 1.5 h ([3]; pancreas, co-injection of 50 μg AMD3100, n = 3, 1.5 h p.i., read-out: Pancreas uptake): 0.16 ± 0.05 %ID/g; tissue uptake at 1.5 h ([3]; spleen, co-injection of 50 μg AMD3100, n = 3, 1.5 h p.i., read-out: Spleen uptake): 0.54 ± 0.19 %ID/g; tissue uptake at 1.5 h ([3]; stomach, co-injection of 50 μg AMD3100, n = 3, 1.5 h p.i., read-out: Stomach uptake): 0.58 ± 0.24 %ID/g
−2.90 | 3.68 ± 0.72 %ID/g | 0.58 ± 0.17 %ID/g | 0.7 ± 0.2 %ID/g | 1.65 ± 0.91 %ID/g | 2.05 ± 0.27 %ID/g | 1.32 ± 0.29 %ID/g | 0.19 ± 0.06 %ID/g | 1.06 ± 0.22 %ID/g | 0.3 ± 0.1 %ID/g | 0.48 ± 0.08 %ID/g | CN1C(=O)[C@@H](Cc2ccc(O)cc2)NC(=O)CNC(=O)[C@H](Cc2ccc3ccccc3c2)NC(=O)[C@H](CCCNC(=N)N)NC(=O)[C@H]1CCCNC(=O)c1ccc(CNC(=O)CN2CCN(CC(=O)O)CCN(CC(=O)O)CCN(CC(=O)O)CC2)cc1 [[^68Ga]pentixafor, metal not drawn] (cyclo([dY][dNMeOrn]([4Amb-DOTA])R[2Nal]G)) | Intestine uptake [4]: 0.67 ± 0.21 % ID/g; radiometabolites in mouse plasma (metabolic stability) [5]: complete absence of radiometabolites
 |  |  |  |  |  |  |  |  |  |  | Pentixafor | IC50 (CXCR4): 102 ± 17 nM
